The results in this text go back to BindingDB's records for doi:10.1111/j.1747-0285.2010.01036.x (Ataturk University, 2010).

As usually defined, the IC50 is the point on the concentration scale where inhibition reaches its midpoint. A lower IC50 goes with higher potency. The Ki is the equilibrium dissociation constant of an inhibitor or competing ligand from its target. A lower Ki goes with tighter binding.

This assay concerns the target Serum paraoxonase/arylesterase 1 (Homo sapiens, UniProt P27169). Kind of assay: In Vitro Inhibtion Assay. The procedure:
The inhibitory effects of six sulfonamide derivatives was examined against the purified enzyme hPON1 and were tested in a triplicate experiment in five different concentrations (0.15, 0.3, 0.45, 0.6, and 0.75 mM).

Serum paraoxonase/arylesterase 1, sequence (P27169 whole entry): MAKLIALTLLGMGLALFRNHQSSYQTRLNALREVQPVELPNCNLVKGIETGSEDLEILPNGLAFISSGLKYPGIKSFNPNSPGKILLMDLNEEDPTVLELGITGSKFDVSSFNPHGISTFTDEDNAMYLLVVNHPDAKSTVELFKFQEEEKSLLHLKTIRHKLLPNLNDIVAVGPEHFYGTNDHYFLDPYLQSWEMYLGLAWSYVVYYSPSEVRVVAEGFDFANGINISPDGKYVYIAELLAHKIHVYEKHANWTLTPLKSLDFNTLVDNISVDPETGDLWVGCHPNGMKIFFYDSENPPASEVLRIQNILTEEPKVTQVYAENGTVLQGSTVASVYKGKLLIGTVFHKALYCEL

`Nc1nnc(S(N)(=O)=O)s1` [1,3,4-thiadiazole-2-sulfonamide 15]: the midpoint of inhibition, the IC50, lay at 1240 µM and the inhibitory constant (Ki) amounted to 2010 µM.
As to `NS(=O)(=O)c1cc(C(=O)O)c(NCc2ccco2)cc1Cl` [4-chloro-2-[(furan-2-ylmethyl)amino]-5-sulfamoylbenzoic acid], the IC50 stood at 360 µM and the Ki was determined as 702 µM.
`CC(=O)Nc1nnc(S(N)(=O)=O)s1` [Acetazolamide, AAZ] had a concentration for half-maximal inhibition (IC50) of 800 µM and a Ki of 743 µM.
Molecule `CC(=O)NS(=O)(=O)c1ccc(N)cc1` [Cetamide] yielded a concentration for half-maximal inhibition (IC50) of 180 µM and a Ki of 86 µM.
For `NCc1ccc(S(N)(=O)=O)cc1` [aromatic sulfonamide compound 6], in that order: 190 µM and 340 µM.
